Measured values: patent publication US9102648B1, “Bioavailable diacylhydrazine ligands for modulating the expression of exogenous genes via an ecdysone receptor complex” (Intrexon Corporation, priority 2003, dated 2015)
In brackets after ≈: the same amount, converted by molar mass. Read-outs that look alike come from different tables or passages of the source.

How the values were obtained:
[1] = Partition coefficient Log (D), 1-octanol / pH 7.4 buffer; assay type: physicochemical; details: water-saturated 1-octanol / pH 7.4 buffer, room temperature
Description: The partition coefficient, Log (D), between water-saturated 1-octanol and pH 7.4 buffer was determined for the test compounds. The buffer was prepared as described in section 2. A 12 μl aliquot of a 10 mM stock solution in DMSO was introduced to a vial containing 0.60 mL of octanol and 0.60 mL of buffer at room temperature. Testosterone was also added to a final concentration of 100 μM as an internal control. The solution was vortexed for 60 minutes and centrifuged at 10,000 rpm for 10 minutes. The organic and aqueous layers were removed. Serial dilutions of the organic layer were made with 50% methanol except for the initial dilution, which was made in 100% methanol. Serial dilutions of the aqueous layer were made in the pH 7.4 buffer. The diluted samples were then assayed by LC/MS for the compound as well as for testosterone. The Log of the ratio of peak area responses was calculated to obtain the Log (D). Typical Log D values for testosterone are from 3.0-3.3.

[2] = Aqueous equilibrium solubility in pH 7.4 buffer; details: for Solubility pH 7.4: pH 7.4 aqueous buffer, room temperature, equilibrium; for solubility: pH 7.4 aqueous phosphate buffer, pH 7.4, aqueous buffer, thermodynamic from solid
Description: Equilibrium solubility was measured in pH 7.4 aqueous buffer. The buffer was prepared by adjusting the pH of a 0.07 M solution of NaH2PO4 to pH 7.4 with 10 N NaOH. […] At least 1 mg of powder was combined with 1 mL of buffer to make >1 mg/mL mixture. These samples were shaken for ≧2 hours and left to stand overnight at room temperature. The samples were then filtered through a 0.45-μm Nylon syringe filter that was first saturated with the sample. The filtrate was sampled twice, consecutively. The filtrate was assayed by HPLC against standards prepared in methanol.

Caco-2 monolayers = experiment: Bi-directional permeability, CACO-2; assay type: in vitro ADME; details: for Absorption Potential: classification from Papp(A-to-B); for Papp B-A / Papp A-B Ratio: Caco-2 efflux ratio
Description: (§1) Caco-2 monolayers were grown to confluence on collagen-coated, microporous, polycarbonate membranes in 12-well Costar Transwell plates. Details of the plates and their certification are shown below. The permeability assay buffer was Hank's Balanced Salt Solution containing 10 mM HEPES and 15 mM glucose at a pH of 7.0±0.2. The dosing solution concentration was 10 μM in assay buffer. At each time point, 1 and 2 hours, a 200-μL aliquot was taken from the receiver chamber and replaced with fresh assay buffer. Cells were dosed on the apical side (A-to-B) or basolateral side (B-to-A) and incubated at 37° C. with 5% CO2 and 90% relative humidity. Each determination was performed in duplicate. The important experimental parameters are outlined below. Permeability through a cell-free (blank) membrane was studied to determine non-specific binding and free diffusion of the compound through the device. Lucifer yellow flux was also measured for each monolayer after being subjected to the test compounds to ensure no damage was inflicted to the cell monolayers during the flux period.
(§2) All samples were assayed by LC/MS using electrospray ionization. Typical LC/MS conditions are as follows:
(§3) dCr/dt is the cumulative concentration in the receiver compartment versus time in M s^−1.
(§4) Vr is the volume of the receiver compartment in cm^3.
(§5) Vd is the volume of the donor compartment in cm^3.
(§6) A is the area of the cell monolayer (1.13 cm^2 for 12-well Transwell).
(§7) C0 is the concentration of the dosing solution in M.
(§8) Cr^final is the cumulative receiver concentration in M at the end of the incubation period.
(§9) Cd^final is the concentration of the donor in M at the end of the incubation period.

[3] = Bi-directional permeability, CACO-2; assay type: in vitro ADME; details: for efflux ratio at 2 h, 10 μM: Caco-2, pH 7
Description: as §1, §2, §3, §4, §5, §6, §7, §8, §9

[4] = test system: mutated ecdysone receptor-based gene switch; experiment: In vivo SEAP induction, ligand by IP injection; parameters: species or system C57BL/6 mouse; details: for Secreted Alkaline Phosphatase (percentage of GS ™-E ligand induction) Day 2 / Secreted Alkaline Phosphatase (percentage of GS ™-E ligand induction) Day 3 / Secreted Alkaline Phosphatase (percentage of GS ™-E ligand induction) Day 11: mouse serum; for Secreted Alkaline Phosphatase (percentage of GS ™-E ligand induction) Day 2: IP 2.6 μmol ligand 3 days after electroporation, day 2 after ligand; for Secreted Alkaline Phosphatase (percentage of GS ™-E ligand induction) Day 3 / Secreted Alkaline Phosphatase (percentage of GS ™-E ligand induction) Day 11: IP 2.6 μmol ligand; for Secreted Alkaline Phosphatase (percentage of GS ™-E ligand induction) Day 3: day 3 after ligand; for Secreted Alkaline Phosphatase (percentage of GS ™-E ligand induction) Day 11: day 11 after ligand
Outline: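 Gene switch plasmids (receptor under CMV promoter) electroporated into quadriceps of C57BL/6 mice; 3 days later ligand given IP at 2.6 μmol or 26 nmol in 50 μL DMSO per mouse. Serum SEAP measured by chemiluminescence 2-11 days after dosing, averaged over four animals, expressed as % of GS™-E ligand induction.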

[5] = Determination of water solubility (de-ionized water, LC/MS); details: kinetic from dmso stock
Description: Aqueous solutions are prepared as follows in triplicate: 50 μl of a 10,000 ppm solution (2,000 μg of solid dissolved in 200 μl of methanol) of the substrate in methanol or DMSO is added to 1 mL of de-ionized water in a 2 dram or smaller vial with magnetic stirring. Stirring is continued overnight at ambient temperature. The slurry is taken up into a syringe with a luer tip. The contents are passed through a new 13 mm 0.2 ρM Acrodisc filter (tuffryn or glass fiber) into an autosampler bottle. For preparation of calibration standard solutions: dilutions of the 10,000 ppm solution were prepared at 10, 5, 1, 0.5, and 0.2 ppm. […] For more soluble materials, dilution of the samples into this range is preferable to increasing the calibration range because the non-linearity of the response results in less useful calibration curves. However a shift in the range of calibration standards is required for very insoluble compounds.
Chromatography of the samples was then preformed. For most diacylhydrazines the following conditions were adequate for the measurement. Other columns and gradients may be substituted as appropriate.
Analysis of the test samples is conducted as follows: Each solubility replicate is analyzed in duplicate. […] Standard curves are obtained from duplicate injections of the standards. The concentration of the substrate is determined by calculation from the equation relating concentration and response.

[6] = classification from Papp(B-to-A) and ratio
[7] = Caco-2, pH 7, Percent Recovery Blank
[8] = Caco-2, pH 7, cell-free (blank) membrane, 10 μM, read-out: Papp Blank
[9] = human, Caco-2, pH 7, Caco-2, 10 μM, replicate 2, read-out: Papp, B-to-A Rep. 2
[10] = human, Caco-2, pH 7, Papp, A-to-B Avg
[11] = human, Caco-2, pH 7, Papp, A-to-B Rep. 2
[12] = human, Caco-2, pH 7, Percent Recovery A-to-B
[13] = human, Caco-2, pH 7, Percent Recovery B-to-A
[14] = human, Caco-2, pH 7, Papp, A-to-B Rep. 1
[15] = human, Caco-2, pH 7, Papp, B-to-A Avg
[16] = human, Caco-2, pH 7, Papp, B-to-A Rep. 1

Structure (SMILES)	Log(D) Octanol/pH 7.4 [1]	Solubility pH 7.4 [2]	Papp Blank (Caco-2 monolayers; Caco-2)	Papp, A-to-B Avg (Caco-2 monolayers; Caco-2)	Papp, A-to-B Rep. 1 (Caco-2 monolayers; Caco-2)	Papp, A-to-B Rep. 2 (Caco-2 monolayers; Caco-2)	Papp, B-to-A Avg (Caco-2 monolayers; Caco-2)	Papp, B-to-A Rep. 1 (Caco-2 monolayers; Caco-2)	Papp, B-to-A Rep. 2 (Caco-2 monolayers; Caco-2)	Significant Efflux (Caco-2 monolayers; Caco-2)	Secreted Alkaline Phosphatase (percentage of GS ™-E ligand induction) Day 2 [4]	Secreted Alkaline Phosphatase (percentage of GS ™-E ligand induction) Day 3 [4]	Secreted Alkaline Phosphatase (percentage of GS ™-E ligand induction) Day 11 [4]	solubility kinetic [5] [µM]	Papp B-A / Papp A-B Ratio (Caco-2 monolayers)	also measured
CC(=O)c1ccc(C(=O)NN(C(=O)c2cc(C(=O)O)cc(C(=O)O)c2)C(C)(C)C)cc1 [RG-100150]	−2.1	≧1.0 mg/mL	36.9 10^−6 cm/s	0.18 10^−6 cm/s	0.19 10^−6 cm/s	0.18 10^−6 cm/s	0.33 10^−6 cm/s	0.33 10^−6 cm/s	0.34 10^−6 cm/s	No						
CCc1ccc(C(=O)NN(C(=O)c2cc(C)cc(C)c2)C(C)(C)C)cc1 [RG-102125]	3.2															solubility [2]: 0.6 µg/mL (≈ 1.7 µM); Absorption Potential (Caco-2 monolayers): High (Papp(A-to-B) ≧ 1.0 × 10^−6 cm/s High); Significant Efflux (Caco-2 monolayers; [6]): No; recovery at 2 h, 10 μM [3, 7]: 62%; Papp at 2 h, 10 µM [3, 8]: 21.9 ×10⁻⁶ cm/s; Papp B→A at 2 h, 10 µM ([3]; human, Caco-2, pH 7, Caco-2, 10 μM, average of 2 replicates, read-out: Papp, B-to-A Avg): 20.2 ×10⁻⁶ cm/s; Papp A→B at 2 h, 10 µM ([3]; human, Caco-2, pH 7, Caco-2, 10 μM, replicate 1, read-out: Papp, A-to-B Rep. 1): 25.7 ×10⁻⁶ cm/s; Papp B→A at 2 h, 10 µM ([3]; human, Caco-2, pH 7, Caco-2, 10 μM, replicate 1, read-out: Papp, B-to-A Rep. 1): 20.7 ×10⁻⁶ cm/s; Papp B→A at 2 h, 10 µM [3, 9]: 19.7 ×10⁻⁶ cm/s; Papp A→B at 2 h, 10 µM [3, 10]: 26 ×10⁻⁶ cm/s; Papp A→B at 2 h, 10 µM [3, 11]: 26.3 ×10⁻⁶ cm/s; recovery at 2 h, 10 μM [3, 12]: 84%; recovery at 2 h, 10 μM [3, 13]: 63%
Cc1cc(C)cc(C(=O)N(NC(=O)c2ccc3c(c2C)OCCO3)C(C)(C)C)c1 [RG-102317, N-(5-methyl-1,4-benzodioxan-6-carbonyl)-N′-(tert-butyl)-N′-(3,5-dimethylbenzoyl)hydrazine]	3.6									No	112 percentage of GS ™-E ligand induction	116 percentage of GS ™-E ligand induction	61 percentage of GS ™-E ligand induction			Papp at 2 h, 10 µM ([3]; Caco-2, pH 7, Papp Blank): 27.9 ×10⁻⁶ cm/s; recovery at 2 h, 10 μM ([3]; Caco-2, pH 7, cell-free (blank) membrane, 10 μM, read-out: Percent Recovery Blank): 87%; efflux ratio at 2 h, 10 μM ([3]; human): 0.8; recovery at 2 h, 10 μM ([3]; human, Caco-2, pH 7, Caco-2, apical-to-basolateral, 10 μM, read-out: Percent Recovery A-to-B): 91%; recovery at 2 h, 10 μM ([3]; human, Caco-2, pH 7, Caco-2, basolateral-to-apical, 10 μM, read-out: Percent Recovery B-to-A): 86%; Papp A→B at 2 h, 10 µM [3, 10]: 28 ×10⁻⁶ cm/s; Papp A→B at 2 h, 10 µM [3, 14]: 28.6 ×10⁻⁶ cm/s; Papp A→B at 2 h, 10 µM [3, 11]: 27.3 ×10⁻⁶ cm/s; Papp B→A at 2 h, 10 µM [3, 15]: 21.1 ×10⁻⁶ cm/s; Papp B→A at 2 h, 10 µM [3, 16]: 21 ×10⁻⁶ cm/s; Papp B→A at 2 h, 10 µM ([3]; human, Caco-2, pH 7, Papp, B-to-A Rep. 2): 21.2 ×10⁻⁶ cm/s
COc1cccc(C(=O)NN(C(=O)c2cc(C)cc(C)c2)C(C)(C)C)c1C [RG-102398]	3.5															solubility [2]: ≤ 0.2 µg/mL; Absorption Potential (Caco-2 monolayers): High (Papp(A-to-B) ≧ 1.0 × 10^−6 cm/s High); Significant Efflux (Caco-2 monolayers; [6]): No; recovery at 2 h, 10 μM [3, 7]: 94%; Papp at 2 h, 10 µM [3, 8]: 34.7 ×10⁻⁶ cm/s; efflux ratio at 2 h, 10 μM ([3]; human): 1; Papp A→B at 2 h, 10 µM ([3]; human, Caco-2, pH 7, Caco-2, 10 μM, average of 2 replicates, read-out: Papp, A-to-B Avg): 26.9 ×10⁻⁶ cm/s; Papp A→B at 2 h, 10 µM ([3]; human, Caco-2, pH 7, Caco-2, 10 μM, replicate 2, read-out: Papp, A-to-B Rep. 2): 26.8 ×10⁻⁶ cm/s; Papp B→A at 2 h, 10 µM [3, 9]: 28.2 ×10⁻⁶ cm/s; Papp A→B at 2 h, 10 µM [3, 14]: 27 ×10⁻⁶ cm/s; Papp B→A at 2 h, 10 µM [3, 15]: 27.1 ×10⁻⁶ cm/s; Papp B→A at 2 h, 10 µM [3, 16]: 25.9 ×10⁻⁶ cm/s; recovery at 2 h, 10 μM [3, 12]: 85%; recovery at 2 h, 10 μM [3, 13]: 90%
COc1cc(C(=O)N(NC(=O)c2ccc3c(c2C)OCCO3)C(C)(C)C)cc(OC)c1O [RG-115009, 4-Hydroxy-3,5-dimethoxy-benzoic acid N-tert-butyl-N′-(5-methyl-2,3-dihydro-benzo[1,4]dioxine-6-carbonyl)-hydrazide]											4 percentage of GS ™-E ligand induction	3 percentage of GS ™-E ligand induction		30.4 (≈ 13.5 µg/mL)		
CCc1c(C(=O)NN(C(=O)c2ccc(F)c(C(F)(F)F)c2)C(C)(C)C)ccc2c1OCCO2 [RG-115280]	3.9	0.0012 mg/mL	1.88 10^−6 cm/s	1.27 10^−6 cm/s	1.24 10^−6 cm/s	1.30 10^−6 cm/s	1.49 10^−6 cm/s	1.50 10^−6 cm/s	1.48 10^−6 cm/s	No					1.2	
Cc1c(C(=O)NN(C(=O)c2cc(F)c(F)c(F)c2)C(C)(C)C)ccc2c1CCCO2 [RG-115575, 3,4,5-Trifluoro-benzoic acid N-tert-butyl-N′-(5-methyl-chroman-6-carbonyl)-hydrazide]											74 percentage of GS ™-E ligand induction	78 percentage of GS ™-E ligand induction	69 percentage of GS ™-E ligand induction	21.6 (≈ 9.08 µg/mL)		
COc1cnccc1C(=O)N(NC(=O)c1cccc(O)c1C)C(C)(C)C [RG-115595]	2.1	0.026 mg/mL	33.2 10^−6 cm/s	19.2 10^−6 cm/s	19.6 10^−6 cm/s	18.9 10^−6 cm/s	30.7 10^−6 cm/s	29.8 10^−6 cm/s	31.7 10^−6 cm/s	No					1.6	
COc1cc(C(=O)N(NC(=O)c2ccc3c(c2C)OCCO3)C(C)(C)C)cc(OC)c1C [RG-115637, 5-Methyl-2,3-dihydro-benzo[1,4]dioxine-6-carboxylic acid N′-tert-butyl-N′-(3,5-dimethoxy-4-methyl-benzoyl)-hydrazide]											12 percentage of GS ™-E ligand induction	7 percentage of GS ™-E ligand induction	0 percentage of GS ™-E ligand induction	13.7 (≈ 6.06 µg/mL)		
CCCC(N(NC(=O)c1cccc(OC)c1C)C(=O)c1cc(C)cc(C)c1)C(C)(C)C (stereo not drawn) [RG-115823]	3.3	0.0003 mg/mL	24.2 10^−6 cm/s	17.6 10^−6 cm/s	17.4 10^−6 cm/s	17.8 10^−6 cm/s	17.1 10^−6 cm/s	18.8 10^−6 cm/s	15.4 10^−6 cm/s	No	129 percentage of GS ™-E ligand induction	183 percentage of GS ™-E ligand induction	2,652 percentage of GS ™-E ligand induction		1.0	Secreted Alkaline Phosphatase Day 2 ([4]; IP 26 nmol ligand, day 2): 3,788 ng/ml mouse sera; Secreted Alkaline Phosphatase Day 3 ([4]; IP 26 nmol ligand, day 3): 2,705 ng/ml mouse sera; Secreted Alkaline Phosphatase Day 7 ([4]; IP 26 nmol ligand, day 7): 373 ng/ml mouse sera
